Assay results from publication PMC3205185, “Identification of a Eukaryotic Reductive Dechlorinase and Characterization of Its Mechanism of Action on Its Natural Substrate” (Chemistry & Biology, 2011).

Experiments:
DrcA (ΔNC16NDrcA) [1] = target: T1, DrcA (ΔNC16NDrcA) (Dictyostelium discoideum, UniProt Q54B85, C54N); assay: dechlorination assay with purified mutant, TLC and Orbitrap MS of the conjugates; format: biochemical
T1 construct: gene DDB_G0293840; ΔNDrcA, lacking the first 38 residues
T1 sequence (Q54B85 39-275 C54N): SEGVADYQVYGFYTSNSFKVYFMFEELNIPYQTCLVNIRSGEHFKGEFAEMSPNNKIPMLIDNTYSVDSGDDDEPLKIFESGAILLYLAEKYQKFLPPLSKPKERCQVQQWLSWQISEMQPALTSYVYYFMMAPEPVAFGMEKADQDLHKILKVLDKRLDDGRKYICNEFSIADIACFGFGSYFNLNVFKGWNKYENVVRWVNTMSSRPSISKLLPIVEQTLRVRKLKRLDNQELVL

[2] = target: T2, DrcA (DIF-1 dechlorinase) (Dictyostelium discoideum, UniProt Q54B85); assay: DIF-1 dechlorination assay with TLC, purified protein; further dechlorinated at higher enzyme or longer incubation; format: biochemical
T2 construct: gene DDB_G0293840
T2 sequence (Q54B85 1-275): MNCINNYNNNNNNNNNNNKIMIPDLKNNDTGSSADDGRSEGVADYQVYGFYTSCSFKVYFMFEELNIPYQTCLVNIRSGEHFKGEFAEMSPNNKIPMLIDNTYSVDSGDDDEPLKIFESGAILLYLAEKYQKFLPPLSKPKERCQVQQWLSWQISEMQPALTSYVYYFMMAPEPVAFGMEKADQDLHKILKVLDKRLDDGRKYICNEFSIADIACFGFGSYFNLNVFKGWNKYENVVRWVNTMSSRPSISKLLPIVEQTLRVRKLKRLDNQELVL

DrcA (ΔNC16NDrcA) [3] = target: T1, DrcA (ΔNC16NDrcA); assay: TLC time course and Orbitrap MS of products of the purified mutant; further converted to GS-DIF-GS; format: biochemical
[4] = substrate: CCCCCC(=O)c1c(O)c(Cl)c(OC)c(Cl)c1O; assay: radioactive [3H]DIF-1 dechlorination assay with TLC, Michaelis-Menten kinetics, purified enzyme (Km); format: biochemical, Dictyostelium discoideum; settings: glutathione glutathione attacks the carbon-chlorine bond to give a GS-DIF conjugate, which is resolved by Cys54

CCCCCC(=O)c1c(O)c(Cl)c(OC)c(Cl)c1O [DIF-1]
dechlorination assay with purified mutant, TLC and Orbitrap MS of the conjugates (DrcA (ΔNC16NDrcA) [1]): although DIF-1 was consumed in the assay, DIF-3 was not produced

CCCCCC(=O)c1c(O)cc(OC)c(Cl)c1O [DIF-3]
DIF-1 dechlorination assay with TLC, purified protein; further dechlorinated at [2]: only appears after all DIF-1 has been converted into the monochlorinated form, suggesting a lower affinity

CCCCCC(=O)c1c(O)c(Cl)c(OC)c(SC[C@H](NC(=O)CC[C@H](N)C(=O)O)C(=O)NCC(=O)O)c1O [GS-DIF]
TLC time course and Orbitrap MS of products of the purified mutant; further conv (DrcA (ΔNC16NDrcA) [3]): ΔNC16NDrcA must be able to accommodate the conjugate GS-DIF to attack the second carbon-chlorine bond

B1: DrcA (DIF-1 dechlorinase) (Dictyostelium discoideum) (protein)
chain: SEGVADYQVYGFYTSCSFKVYFMFEELNIPYQTCLVNIRSGEHFKGEFAEMSPNNKIPMLIDNTYSVDSGDDDEPLKIFESGAILLYLAEKYQKFLPPLSKPKERCQVQQWLSWQISEMQPALTSYVYYFMMAPEPVAFGMEKADQDLHKILKVLDKRLDDGRKYICNEFSIADIACFGFGSYFNLNVFKGWNKYENVVRWVNTMSSRPSISKLLPIVEQTLRVRKLKRLDNQELVL
notes: ΔNDrcA, lacking the first 38 residues, C-terminal 6×His tag
Km [4]: 88 ± 17.5 nM
kcat [4]: 6.7 s⁻¹
kcat/Km [4]: 7.6e+07 M⁻¹ s⁻¹
